The values below come from ChEMBL document CHEMBL1147770, “Design, synthesis and structure-activity relationships of new phosphinate inhibitors of MurD” (Bioorg Med Chem Lett, 2006).

Structures are written as SMILES.

Assay [1] addresses T1, UDP-N-acetylmuramoylalanine--D-glutamate ligase (Escherichia coli K-12) (UniProt P14900).
T1 sequence (whole entry): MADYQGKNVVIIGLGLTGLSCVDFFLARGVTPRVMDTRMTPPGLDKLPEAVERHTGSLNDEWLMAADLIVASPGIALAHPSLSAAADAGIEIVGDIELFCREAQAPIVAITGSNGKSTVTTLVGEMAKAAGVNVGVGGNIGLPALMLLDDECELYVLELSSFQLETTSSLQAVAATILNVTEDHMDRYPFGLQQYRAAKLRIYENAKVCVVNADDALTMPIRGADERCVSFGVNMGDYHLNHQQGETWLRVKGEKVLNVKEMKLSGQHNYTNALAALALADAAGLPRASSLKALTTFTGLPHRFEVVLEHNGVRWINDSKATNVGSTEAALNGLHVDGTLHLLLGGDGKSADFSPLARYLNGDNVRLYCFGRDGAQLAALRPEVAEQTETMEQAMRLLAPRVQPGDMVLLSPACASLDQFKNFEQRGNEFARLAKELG
In words: Residual activity of MurD from Escherichia coli at 1 mM.

The target in assay [2] is T2, UDP-N-acetylmuramoylalanine--D-glutamate ligase (Escherichia coli K-12, UniProt P14900).
T2 sequence (P14900 whole entry): T1 sequence (whole entry)
Kind of assay: Inhibitory activity against MurD from Escherichia coli.

The target of assay [3] is T3, UDP-N-acetylmuramoylalanine--D-glutamate ligase (Streptococcus pneumoniae serotype 4 (strain ATCC BAA-334 / TIGR4), UniProt Q97RU8).
T3 sequence (Q97RU8 whole entry): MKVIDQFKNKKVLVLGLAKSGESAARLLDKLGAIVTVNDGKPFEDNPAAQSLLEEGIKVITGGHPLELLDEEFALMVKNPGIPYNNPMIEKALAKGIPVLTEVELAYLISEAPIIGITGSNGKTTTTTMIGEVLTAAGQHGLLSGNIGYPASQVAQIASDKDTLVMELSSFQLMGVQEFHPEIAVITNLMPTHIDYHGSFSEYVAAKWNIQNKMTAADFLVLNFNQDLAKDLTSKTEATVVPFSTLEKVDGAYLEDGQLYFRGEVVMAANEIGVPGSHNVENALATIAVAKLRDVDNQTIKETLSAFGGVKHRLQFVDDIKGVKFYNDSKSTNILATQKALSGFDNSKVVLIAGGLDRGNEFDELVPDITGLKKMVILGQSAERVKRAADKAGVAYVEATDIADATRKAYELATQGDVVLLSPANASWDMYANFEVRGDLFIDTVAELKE
In words: Inhibitory activity against MurD from Streptococcus pneumoniae.

The compound `CC(NS(=O)(=O)c1cccc([N+](=O)[O-])c1)P(=O)(O)CC(CCC(=O)O)C(=O)O` (configuration not stated) had an Activity in assay [1] of 52%.
For `CC(NS(=O)(=O)Cc1cccc(C(F)(F)F)c1)P(=O)(O)CC(CCC(=O)O)C(=O)O` (configuration not stated), the Activity in assay [1] worked out at 49%.
As for `CC(NS(=O)(=O)Cc1ccc(C(F)(F)F)cc1)P(=O)(O)CC(CCC(=O)O)C(=O)O` (configuration not stated), the Activity in assay [1] was 50%.
`CC(NS(=O)(=O)Cc1ccccc1)P(=O)(O)CC(CCC(=O)O)C(=O)O` (configuration not stated) returned an Activity in assay [1] of 40%.
The same measure, in the same setting: with `CC(NS(=O)(=O)c1ccccc1)P(=O)(O)CC(CCC(=O)O)C(=O)O` (configuration not stated) the figure was 54%; with `CC(NS(=O)(=O)c1ccc2ccccc2c1)P(=O)(O)CC(CCC(=O)O)C(=O)O` (configuration not stated), 55%.
The IC50 is the point on the concentration scale where inhibition reaches its midpoint. `CC(NC(=O)/C=C/c1ccccc1)P(=O)(O)CC(CCC(=O)O)C(=O)O` (configuration not stated): it took 432 µM to reach half-maximal inhibition in assay [2] (IC50). The Activity in assay [1] was 28%.
For the compound `CC(NS(=O)(=O)Cc1ccc([N+](=O)[O-])cc1)P(=O)(O)CC(CCC(=O)O)C(=O)O` (configuration not stated), the Activity in assay [1] was determined as 47%.
`CC(NC(=O)OCc1ccccc1)P(=O)(O)CC(CCC(=O)O)C(=O)O` (configuration not stated) registered an IC50 in assay [3] of 100 µM. In assay [1], this compound had an Activity of 41%.
In the case of `CC(C)C(NC(=O)OCc1ccccc1)P(=O)(O)CC(CCC(=O)O)C(=O)O` (configuration not stated), the Activity in assay [1] came out at 66%.
As to `CC(NC(=O)[C@@H](C)NS(=O)(=O)Cc1ccc([N+](=O)[O-])cc1)P(=O)(O)CC(CCC(=O)O)C(=O)O` (some centres not stated), in assay [2], the IC50 came out at 78 µM. In assay [1], the Activity was determined as 8%.
With `CC(NC(=O)[C@H](C)NS(=O)(=O)Cc1ccc([N+](=O)[O-])cc1)P(=O)(O)CCC(=O)O` (some centres not stated), in assay [1], the Activity was 100%.
As for `CCC(C)C(NC(=O)OCc1ccccc1)P(=O)(O)CC(CCC(=O)O)C(=O)O` (configuration not stated), the Activity in assay [1] amounted to 83%.
In assay [1], `CC(NC(=O)OCc1ccccc1)P(=O)(O)CCC(=O)O` (configuration not stated) displayed an Activity of 92%.
In the case of `CC(NS(=O)(=O)Cc1cccc([N+](=O)[O-])c1)P(=O)(O)CC(CCC(=O)O)C(=O)O` (configuration not stated), the Activity in assay [1] is 22%.
As for `CC(NS(=O)(=O)Cc1ccccc1[N+](=O)[O-])P(=O)(O)CC(CCC(=O)O)C(=O)O` (configuration not stated), the Activity in assay [1] worked out at 30%.
On the same count and under the same terms, for `CC(NC(=O)[C@@H](C)NS(=O)(=O)Cc1cccc([N+](=O)[O-])c1)P(=O)(O)CC(CCC(=O)O)C(=O)O` (some centres not stated) the value was 19%; for `CC(NC(=O)[C@@H](C)NC(=O)Cc1ccc2c(c1)OCO2)P(=O)(O)CC(CCC(=O)O)C(=O)O` (some centres not stated), 44%.
The compound `CC(NC(=O)Cc1ccc2c(c1)OCO2)P(=O)(O)CC(CCC(=O)O)C(=O)O` (configuration not stated) showed an Activity in assay [1] of 36%.
Consider `CC(NC(=O)/C=C/c1cccc(O)c1)P(=O)(O)CC(CCC(=O)O)C(=O)O` (configuration not stated), for which, in assay [1], the Activity came out at 23%.
In turn, `CC(NC(=O)/C=C/c1ccc2c(c1)OCO2)P(=O)(O)CCC(=O)O` (configuration not stated) yielded an Activity in assay [1] of 91%.
On to `CC(NC(=O)/C=C/c1ccc2c(c1)OCO2)P(=O)(O)CC(CCC(=O)O)C(=O)O` (configuration not stated), for which the midpoint of inhibition in assay [2], the IC50, lay at 95 µM.
For the compound `CC(NS(=O)(=O)Cc1ccc(F)cc1Cl)P(=O)(O)CC(CCC(=O)O)C(=O)O` (configuration not stated), the Activity in assay [1] turned out to be 37%.
Same read-out and setting: for `CC(C)CC(NC(=O)OCc1ccccc1)P(=O)(O)CC(CCC(=O)O)C(=O)O` (configuration not stated) the value was 65%.
